Test results: PMC3556092, “Cellular responses induced by Cu(II) quinolinonato complexes in human tumor and hepatic cells” (Chemistry Central Journal, 2012)
Like-named read-outs stand apart in the source and are kept apart here.

Assays:
[1] = test system: all cancer cell lines (A2780, A2780cis, G361, A549, HeLa, LNCaP, THP-1); assay: Antiproliferative effect of starting compounds on all cancer cell lines; conditions: read-out: IC50, in vitro cytotoxicity of starting compounds on all cancer cell lines, 24 h
[2] = test system: TNF-α secretion, LPS-stimulated THP-1 cells; assay: LPS-induced TNF-α secretion in THP-1 macrophages (ELISA); format: cell-based, human; conditions: 0.2 μM; for increase of TNF-α secretion, factor in comparison to vehicle: LPS-activated macrophages, 24 h; for TNF-α secretion: 1 h pre-treatment, then LPS 24 h
Experimental: (§1) To determine the influence of the tested complexes on the TNF-α and IL-1β secretions, the human monocytic leukemia cell line THP-1 was used. The cells were cultivated at 37°C in the RPMI 1640 medium supplemented with 2 mM L-glutamine, 10% fetal bovine serum (FBS), 100 U/mL of penicillin and 100 μg/mL of streptomycin in a humidified atmosphere containing 5% CO2. The stabilized cells (3rd–20th passage) were split into microtitration plates to get a concentration of 100 000 cells/mL and the differentiation to macrophages was induced by a phorbol myristate acetate (PMA) as we described previously.
(§2) Differentiated macrophages were pretreated for 1 h with 0.2 μM solutions of the tested complexes, prednisone or CuSO4 · 5 H2O dissolved in DMSO (the final DMSO concentration was 0.1%) and with 0.1% DMSO solution itself (the experimental group called vehicle); the given concentrations of the tested compounds lack the cytotoxic effect. The inflammatory response was triggered by adding 1.0 μg/mL lipopolysaccharide (LPS) dissolved in water to pretreated macrophages, control cells were without the LPS treatment. Each experiment was repeated three-times.
(§3) Macrophages pretreated with the tested compounds for 1 h were incubated with LPS for next 24 h. After this period, the medium was collected and the concentration of TNF-α and IL-1β was measured by Instant ELISA kit (eBioscience, Vienna, Austria) according to the manufacturer’s manual.

[3] = test system: IL-1β secretion, LPS-stimulated THP-1 cells; assay: LPS-induced IL-1β secretion in THP-1 macrophages (ELISA); format: cell-based, human; conditions: 0.2 μM; for increase of IL-1β secretion, factor: LPS-activated cells, 24 h; for IL-1β secretion: 1 h pre-treatment, then LPS 24 h
Experimental: as §1, §2, §3

[4] = test system: glucocorticoid receptor (GR) transcriptional activity; conditions: 24 h; complexes 10 nM – 5 μM; DEX 10 pM – 100 nM
[5] = test system: aryl hydrocarbon receptor (AhR) transcriptional activity; assay: AhR gene reporter assay in AZ-AhR cells; format: cell-based, human; conditions: 24 h; complexes 10 nM – 5 μM; TCDD 10 pM – 10 μM
[6] = test system: A549 lung carcinoma cells; assay: In vitro cytotoxicity, MTT assay, A549; format: cell-based, human; conditions: 24 h, read-out: IC50 ± SD, A549
Experimental: (§4) Figure S1. […] The cells were plated at 96-well dishes and cultured according manufacturer instructions. The tested compounds were applied to the cells for 24 h in concentrations ranging from 0.01 to 50 µM. The tested compounds were applied to the cells for 24 h. The cytotoxicity was assessed by the MTT test, measurements were performed in triplicate, and each cytotoxicity experiment was repeated three times. The data are expressed as IC50 ± SD (μM).

[7] = test system: HeLa cervix epitheloid carcinoma cells; assay: In vitro cytotoxicity, MTT assay, HeLa; format: cell-based, human; conditions: 24 h, read-out: IC50 ± SD, HeLa
Experimental: as §4, with “S2.” for “S1.”

[8] = test system: G361 malignant melanoma cells; assay: In vitro cytotoxicity, MTT assay, G361; format: cell-based, human; conditions: 24 h, read-out: IC50 ± SD, G361
Experimental: as §4, with “S3.” for “S1.”

[9] = test system: A2780 ovarian carcinoma cells; assay: In vitro cytotoxicity, MTT assay, A2780; format: cell-based, human; conditions: 24 h, read-out: IC50 ± SD, A2780
Experimental: as §4, with “S4.” for “S1.”

[10] = test system: A2780cis cisplatin-resistant ovarian carcinoma cells; assay: In vitro cytotoxicity, MTT assay, A2780cis; format: cell-based, human; conditions: for IC50: 24 h, MTT, read-out: IC50 ± SD, A2780cis; for IC50(A2780cis)/IC50(A2780) ratio (resistance factor): in comparison with cisplatin
Experimental: as §4, with “S5.” for “S1.”

[11] = test system: LNCaP androgen-sensitive prostate adenocarcinoma cells; assay: In vitro cytotoxicity, MTT assay, LNCaP; format: cell-based, human; conditions: 24 h, read-out: IC50 ± SD, LNCaP
Experimental: as §4, with “S6.” for “S1.”

[12] = test system: THP-1 monocytic leukemia cells; design: method as in PMID 15139770; conditions: cited from earlier work
[13] = test system: THP-1 monocytic leukemia cells; assay: In vitro cytotoxicity, WST-1 test, THP-1; format: cell-based, human; conditions: 24 h, WST-1, serum-free medium; read-out: IC50 ± SD, THP-1
Experimental: as §4, with “S7.” for “S1.”

[14] = test system: primary human hepatocytes (HH1); assay: Toxicity to primary human hepatocytes; format: cell-based; conditions: 24 h, MTT; read-out: IC50 ± SD, HH1 (toxicity to primary human hepatocytes)

Compound	increase of TNF-α secretion, factor in comparison to vehicle [2]	increase of IL-1β secretion, factor [3]	IC50 [6]	IC50 [7]	IC50 [8]	IC50 [9]	IC50 [10]	IC50 [11]	IC50 [13]	IC50 [14]	further results
F[B-](F)(F)F.F[B-](F)(F)F.[Cu+2] [Cu(BF4)2 · H2O]	–	–	–	–	–	–	–	–	–	–	IC50 [1]: > 50000 nM
O=[N+]([O-])[O-].O=[N+]([O-])[O-].[Cu+2] [Cu(NO3)2 · 3H2O]	–	–	–	–	–	–	–	–	–	–	IC50 [1]: > 50000 nM
O.O.O.O.O.O=S(=O)([O-])[O-].[Cu+2] [CuSO4·5H2O, reference compound]	1.4	~1.6	–	–	–	–	–	–	–	–	–
C[C@@H]1C[C@H]2[C@@H]3CCC4=CC(=O)C=C[C@]4(C)[C@@]3(F)[C@@H](O)C[C@]2(C)[C@@]1(O)C(=O)CO [DEX, dexamethasone]	–	–	–	–	–	–	–	–	–	–	luciferase activity in AZ-GR cells [4]: strongly, dose-dependently induced
O=c1c(O)c(-c2ccccc2)[nH]c2ccccc12 [Hqui, 2-phenyl-3-hydroxy-4(1H)-quinolinone]	–	–	–	–	–	–	–	–	–	–	IC50 ([1]; Homo sapiens): > 50000 nM
Clc1cc2c(cc1Cl)Oc1cc(Cl)c(Cl)cc1O2 [TCDD, 2,3,7,8-tetrachlorodibenzo-p-dioxin]	–	–	–	–	–	–	–	–	–	–	luciferase activity in AZ-AhR cells [5]: strongly, dose-dependently induced
c1ccc(-c2ccnc3c2ccc2c(-c4ccccc4)ccnc23)cc1 [bphen, bathophenanthroline]	–	–	–	–	–	–	–	–	–	–	IC50 [1]: > 50000 nM
N.N.[Cl][Pt][Cl] [cisplatin, reference compound]	–	–	25800 ± 7100 nM	10000 ± 2600 nM	3400 ± 100 nM	12000 ± 800 nM	27000 ± 4600 nM	3800 ± 1500 nM	–	–	IC50 [12]: 2000 nM
O.O=[N+]([O-])[O-].O=c1c([O-])c(-c2ccccc2)[nH]c2ccccc12.[Cu+2].c1cnc2c(c1)ccc1cccnc12 [compound 1, [Cu(qui)(phen)]NO3 · H2O]	~ 1.25	practically no influence	2500 ± 400 nM	2900 ± 300 nM	820 ± 150 nM	650 ± 280 nM	830 ± 300 nM	2400 ± 600 nM	2000 ± 100 nM	> 10000 nM	–
F[B-](F)(F)F.O=c1c([O-])c(-c2ccccc2)[nH]c2ccccc12.[Cu+2].c1cnc2c(c1)ccc1cccnc12 [compound 2, [Cu(qui)(phen)]BF4]	~ 1.25	practically no influence	3900 ± 1200 nM	2700 ± 600 nM	640 ± 200 nM	520 ± 100 nM	1700 ± 600 nM	1900 ± 600 nM	1700 ± 200 nM	20400 ± 1200 nM	–
Cc1cc2cccnc2c2ncccc12.O.O=[N+]([O-])[O-].O=c1c([O-])c(-c2ccccc2)[nH]c2ccccc12.[Cu+2] [compound 3, [Cu(qui)(mphen)]NO3 · H2O]	~ 1.25	practically no influence	2500 ± 600 nM	2600 ± 400 nM	530 ± 220 nM	380 ± 30 nM	780 ± 70 nM	2100 ± 600 nM	1500 ± 300 nM	> 10000 nM	–
Cc1cc2cccnc2c2ncccc12.F[B-](F)(F)F.O.O=c1c([O-])c(-c2ccccc2)[nH]c2ccccc12.[Cu+2] [compound 4, [Cu(qui)(mphen)]BF4 · H2O]	1.6	1.6	2500 ± 600 nM	2400 ± 1000 nM	530 ± 90 nM	360 ± 50 nM	560 ± 150 nM	1500 ± 600 nM	1100 ± 400 nM	9300 ± 600 nM	–
O.O=[N+]([O-])[O-].O=c1c([O-])c(-c2ccccc2)[nH]c2ccccc12.[Cu+2].c1ccc(-c2ccnc3c2ccc2c(-c4ccccc4)ccnc23)cc1 [compound 5, [Cu(qui)(bphen)]NO3 · H2O]	1.8	6.9	1700 ± 300 nM	1000 ± 200 nM	960 ± 30 nM	660 ± 70 nM	730 ± 80 nM	740 ± 210 nM	570 ± 80 nM	3600 ± 200 nM	IC50(A2780cis)/IC50(A2780) ratio (resistance factor) [10]: practically two times lower; TNF-α secretion [2]: 2873 ± 238 pg/mL; IL-1β secretion [3]: 1177 ± 128 pg/mL
F[B-](F)(F)F.O=c1c([O-])c(-c2ccccc2)[nH]c2ccccc12.[Cu+2].c1ccc(-c2ccnc3c2ccc2c(-c4ccccc4)ccnc23)cc1 [compound 6, [Cu(qui)(bphen)]BF4]	2	6.4	1300 ± 400 nM	1300 ± 400 nM	720 ± 60 nM	570 ± 110 nM	700 ± 200 nM	620 ± 80 nM	560 ± 100 nM	5300 ± 300 nM	IC50(A2780cis)/IC50(A2780) ratio (resistance factor) [10]: practically two times lower; TNF-α secretion [2]: 3284 ± 139 pg/mL; IL-1β secretion [3]: 1087 ± 101 pg/mL
Cc1cc2cccnc2c2ncccc12 [mphen, 5-methyl-1,10-phenanthroline]	–	–	–	–	–	–	–	–	–	–	IC50 ([1]; Homo sapiens): > 50000 nM
c1cnc2c(c1)ccc1cccnc12 [phen, 1,10-phenanthroline]	–	–	–	–	–	–	–	–	–	–	IC50 ([1]; Homo sapiens): > 50000 nM
C[C@]12C=CC(=O)C=C1CC[C@@H]1[C@@H]2C(=O)C[C@@]2(C)[C@H]1CC[C@]2(O)C(=O)CO [prednisone, reference compound]	–	–	–	–	–	–	–	–	–	–	TNF-α secretion [2]: 1173 ± 85 pg/mL; IL-1β secretion [3]: 118.5 ± 4.8 pg/mL
